The values that follow are results of earlier work, collected in patent US20180177700A1, “HAIR REMOVAL COMPOSITIONS AND METHODS” (priority 2016, published 2018).

One data set deals with body hair. To be noted: all different types of body hair (scalp, facial, axillary, pubic, leg).
Setting [1] is: topical, 24 weeks, over 594 patients, versus placebo.

Structures are written as SMILES. Where a name gives a salt, the structure may show the parent alone.

With `CS(=O)(=O)OCCCCOS(C)(=O)=O` [busulfan], in the data set with body hair, the hair loss induced is on record as around 100%.

Take `NCCCC(N)(C(=O)O)C(F)F` (centres unmarked) [eflornithine hydrochloride]: in the data set with unwanted facial hair (after the drug application), the “time after drug application at which hair growth returned to baseline (transient inhibition)” value was “eight”. Besides, in the data set with unwanted facial hair (setting [1]), the “patients with "Clear" physician reported change in unwanted facial hair” value is reported as 5%, the “patients with "Improved" physician reported change in unwanted facial hair” value is listed as 26% and the “patients with "Marked" physician reported change in unwanted facial hair” value was 27%.
